Activity calls are given as the source filed them. The rule behind the calls is not given here.
Assays:
[1] = tested on: B16-F10; assay: Antiproliferative activity against mouse B16-F10 cells incubated for 48 hrs by MTT assay; assay type: functional, cell-based; conditions: B16-F10, 48 h
[2] = tested on: HeLa; assay: Antiproliferative activity against human HeLa cells incubated for 48 hrs by MTT assay; assay type: functional, cell-based
[3] = tested on: HepG2; assay: Antiproliferative activity against human HepG2 cells incubated for 48 hrs by MTT assay; assay type: functional, cell-based; conditions: HepG2, 48 h
[4] = tested on: NCI-H23; assay: Antiproliferative activity against human NCI-H23 cells incubated for 48 hrs by MTT assay; assay type: functional, cell-based; conditions: NCI-H23, 48 h
[5] = tested on: HCT-116; assay: Antiproliferative activity against human HCT-116 cells incubated for 48 hrs by MTT assay; assay type: functional, cell-based; conditions: HCT-116, 48 h
[6] = tested on: MCF7; assay: Antiproliferative activity against human MCF7 cells incubated for 48 hrs by MTT assay; assay type: functional, cell-based; conditions: MCF7, 48 h
[7] = Toxicity in C57 mouse xenografted with mouse B16-F10 cells assessed as body weight change at 7 mg/kg, ip qd for 12 days; assay type: organism-based; conditions: in vivo, 288 h, time 12 day
[8] = tested on: B16-F10; assay: Antitumor activity against mouse B16-F10 cells xenografted in C57 mouse assessed as suppression of tumor growth at 7 mg/kg, ip qd for 12 days; assay type: functional, organism-based; conditions: time 12.0 day
[9] = tested on: B16-F10; assay: Antitumor activity against mouse B16-F10 cells xenografted in C57 mouse at 7 mg/kg, ip qd for 12 days relative to control; assay type: functional; conditions: B16-F10, 288 h, time 12 day, read-out: TGI

Row | SMILES | IC50 [1] [µM] | IC50 [2] [µM] | IC50 [3] [µM] | IC50 [4] [µM] | IC50 [5] [µM] | IC50 [6] [µM] | Activity [7] | Activity [8] | inhibition in vivo at 7 mg/kg [9] [%]
1 | COc1cccc(N(C)c2nc(C)nc3ccsc23)c1 | > 0.1 | > 0.1 | > 0.1 | > 0.1 | > 0.1 | > 0.1 | – | – | –
2 | Cc1nc(N(C)c2cc(Cl)cc(Cl)c2)c2sccc2n1 | > 0.1 | > 0.1 | > 0.1 | > 0.1 | > 0.1 | > 0.1 | – | – | –
3 | COc1ccc(N(C)c2nc(C)nc3ccsc23)cc1 | 0.03 | 0.0187 | 0.0187 | 0.00937 | 0.00312 | 0.0014 | – | – | –
4 | Cc1nc(N(C)c2ccc(OC(C)C)cc2)c2sccc2n1 | > 0.1 | > 0.1 | > 0.1 | > 0.1 | > 0.1 | > 0.1 | – | – | –
5 | Cc1nc(N(C)c2cccc3ccccc23)c2sccc2n1 | > 0.1 | > 0.1 | > 0.1 | > 0.1 | > 0.1 | > 0.1 | – | – | –
6 | Cc1nc(N(C)c2cccc(OC(F)(F)F)c2)c2sccc2n1 | > 0.1 | > 0.1 | > 0.1 | > 0.1 | > 0.1 | > 0.1 | – | – | –
7 | COc1cc(N(C)c2nc(C)nc3ccsc23)cc(OC)c1OC | > 0.1 | > 0.1 | > 0.1 | > 0.1 | > 0.1 | > 0.1 | – | – | –
8 | COc1ccccc1N(C)c1nc(C)nc2ccsc12 | > 0.1 | > 0.1 | > 0.1 | > 0.1 | > 0.1 | > 0.1 | – | – | –
9 | Cc1ccc(N(C)c2nc(C)nc3ccsc23)cc1 | > 0.1 | > 0.1 | > 0.1 | > 0.1 | > 0.1 | > 0.1 | – | – | –
10 | Cc1nc(N(C)c2ccc(Cl)c(Cl)c2)c2sccc2n1 | > 0.1 | > 0.1 | > 0.1 | > 0.1 | > 0.1 | > 0.1 | – | – | –
11 | COc1ccc(N(C)c2nc(C)nc3ccsc23)cc1C(F)(F)F | > 0.1 | > 0.1 | > 0.1 | > 0.1 | > 0.1 | > 0.1 | – | – | –
12 | COc1cc2c(c(OC)c1OC)-c1ccc(OC)c(=O)cc1[C@@H](NC(C)=O)CC2 [COLCHICINE] | 0.0187 | 0.00935 | 0.005 | 0.0031 | 0.00937 | – | – | – | –
13 | COc1ccc(N(C)c2nc(C)nc3ccsc23)cc1OC | > 0.1 | > 0.1 | > 0.1 | > 0.1 | > 0.1 | > 0.1 | – | – | –
14 | COc1ccc(N(C)c2nc(C)nc3ccsc23)cc1[N+](=O)[O-] | 0.00625 | 0.02 | 0.0185 | 0.0187 | 0.00156 | 0.00468 | – | – | –
15 | Cc1nc(N(C)c2ccccc2C)c2sccc2n1 | > 0.1 | > 0.1 | > 0.1 | > 0.1 | > 0.1 | > 0.1 | – | – | –
16 | Cc1cccc(N(C)c2nc(C)nc3ccsc23)c1 | > 0.1 | > 0.1 | > 0.1 | > 0.1 | > 0.1 | > 0.1 | – | – | –
17 | Cc1c(COc2cc(OCc3cccc(C#N)c3)c(CNC(C)(C)C(=O)O)cc2Cl)cccc1-c1ccccc1 | – | – | – | – | – | – | Non-Toxic | Active | 43.9
18 | Cc1nc(N(C)c2ccc(C(C)C)cc2)c2sccc2n1 | > 0.1 | > 0.1 | > 0.1 | > 0.1 | > 0.1 | > 0.1 | – | – | –
19 | Cc1nc(N(C)c2ccc(C(F)(F)F)cc2)c2sccc2n1 | > 0.1 | > 0.1 | > 0.1 | > 0.1 | > 0.1 | > 0.1 | – | – | –
20 | COc1cc(OC)cc(N(C)c2nc(C)nc3ccsc23)c1 | > 0.1 | > 0.1 | > 0.1 | > 0.1 | > 0.1 | > 0.1 | – | – | –
21 | CN(c1ccc2c(ccn2C)c1)c1ncnc2ccsc12 | > 0.1 | > 0.1 | > 0.1 | > 0.1 | > 0.1 | > 0.1 | – | – | –
22 | Cc1nc(N(C)c2cccc(C(F)(F)F)c2)c2sccc2n1 | > 0.1 | > 0.1 | > 0.1 | > 0.1 | > 0.1 | > 0.1 | – | – | –
23 | Cc1nc(N(C)c2ccc3ccccc3c2)c2sccc2n1 | 0.0156 | 0.009 | 0.018 | 0.0187 | 0.00058 | 0.02 | – | – | –
